pKi: −log10 of the molar value.
Legend:
H3 receptor = molecular target: T1, H3 receptor (Cavia porcellus, UniProt Q9JI35); experiment: H3 Receptor Binding Assay (displacement of [3H]R-α-methylhistamine or [3H]-N-methylhistamine); settings: guinea pig brain membranes; 3 nM [3H]R-α-methylhistamine or [3H]-N-methylhistamine; 30°, 30 min; duplicate, standard error less than 10%
T1 construct: The source of the H3 receptors in this experiment was guinea pig brain; from tissue; host or cells: guinea pig brain membranes
T1 sequence (Q9JI35 whole entry): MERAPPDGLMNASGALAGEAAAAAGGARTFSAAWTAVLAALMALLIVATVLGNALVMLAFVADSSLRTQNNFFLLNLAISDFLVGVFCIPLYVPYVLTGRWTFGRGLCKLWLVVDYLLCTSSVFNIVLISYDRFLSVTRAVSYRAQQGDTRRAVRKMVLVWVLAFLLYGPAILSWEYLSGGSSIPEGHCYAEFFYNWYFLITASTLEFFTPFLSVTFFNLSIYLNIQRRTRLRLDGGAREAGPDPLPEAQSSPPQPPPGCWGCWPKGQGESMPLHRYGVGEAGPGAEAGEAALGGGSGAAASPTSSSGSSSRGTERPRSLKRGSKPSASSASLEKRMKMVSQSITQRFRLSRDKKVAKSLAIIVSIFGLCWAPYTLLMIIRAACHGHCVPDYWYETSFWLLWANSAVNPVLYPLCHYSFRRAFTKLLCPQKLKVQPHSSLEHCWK
Method: The compounds of this invention are either agonists or antagonists of the histamine H3 receptor. […] The animals used weighed 400-600 g. The tissue was homogenized using a Polytron in a solution of 50 mM Tris, pH 7.5. The final concentration of tissue in the homogenization buffer was 10% w/v. The homogenates were centrifuged at 1000×g for 10 min. in order to remove clumps of tissue and debris. […] The membranes were frozen and stored at -70° C. until needed. All compounds to be tested were dissolved in DMSO and then diluted into the binding buffer (50 mM Tris, pH 7.5) such that the final concentration was 2 μg/ml with 0.1% DMSO. Membranes were then added (400 μg of protein) to the reaction tubes. […] Bound ligand was separated from unbound ligand by filtration, and the amount of radioactive ligand bound to the membranes was quantitated by liquid scintillation spectrometry.

[1] = tested on: H3 receptors in rat brain; settings: cited from Arrang et al.; cited from earlier work

Structure (SMILES)	pKi (H3 receptor)	maximal inhibition of release [1]
O=C(CCN1CCC(CCc2cnc[nH]2)C1)Nc1ccc(Cl)cc1 (centres unmarked) [Compound 45]	9.05	
O=S(=O)(c1ccc(Cl)cc1)N1CCC(Cc2cnc[nH]2)CC1 [Compound 78]	6.82	
c1ccc(OCCCN2CCC(Cc3cnc[nH]3)CC2)cc1 [Compound 79]	8.40	
O=C(CCN1CCC(Cc2cnc[nH]2)CC1)Nc1cccc(Cl)c1 [Compound 81]	9.70	
O=C(CCN1CCC(Cc2c[nH]cn2)CC1)NCCc1ccc(Cl)cc1 [Compound 82]	9.15	
O=C(CCN1CCC(Cc2cnc[nH]2)CC1)Nc1cc(Cl)cc(Cl)c1 [Compound 83]	9.15	
O=C(CCN1CCC(Cc2cnc[nH]2)CC1)Nc1ccc(Cl)cc1 [Compound 84]	9.40	
O=C(Nc1cc(Cl)cc(Cl)c1)N1CCC(Cc2cnc[nH]2)CC1 [Compound 85]	6.66	
O=C(CCOc1ccccc1)N1CCC(Cc2cnc[nH]2)CC1 [Compound 86]	8.30	
O=C(CCOc1ccc(Cl)cc1)N1CCC(Cc2cnc[nH]2)CC1 [Compound 87]	8.05	
Clc1ccc(OCCCN2CCC(Cc3cnc[nH]3)CC2)cc1 [Compound 88]	8.05	
O=C(CCN1CCC(Cc2cnc[nH]2)CC1)Nc1ccc(I)cc1 [Compound 89]	8.30	
O=C(CN1CCC(Cc2cnc[nH]2)CC1)Nc1ccc(Cl)cc1 [Compound 90]	7.05	
O=C(Nc1cccc(Cl)c1)N1CCC(Cc2cnc[nH]2)CC1 [Compound 91]	7.70	
O=C(Nc1ccc(Cl)cc1)N1CCC(Cc2cnc[nH]2)CC1 [Compound 92]	6.80	
O=C(CCc1ccc(Cl)cc1)N1CCC(Cc2cnc[nH]2)CC1 [Compound 93]	7.40	
O=C(CCN1CCC(Cc2c[nH]cn2)CC1)Nc1cccc(F)c1 [Compound 94]	10.00	
O=C(CC(=O)N1CCC(Cc2cnc[nH]2)CC1)Nc1cccc(Cl)c1 [Compound 95]	7.30	
O=C(CCCc1ccccc1)N1CCC(Cc2cnc[nH]2)CC1 [Compound 96]	8.10	
O=S(=O)(c1ccc(OC(F)(F)F)cc1)N1CCC(CCc2cnc[nH]2)C1 (centres unmarked) [Compound 97]	7.24	
FC(F)(F)c1ccc(NCCCN2CCC(CCc3cnc[nH]3)CC2)cc1 [Compound 114]	7.22	
O=C(Cc1ccc(Cl)c(Cl)c1)N1CCC(CCc2cnc[nH]2)CC1 [Compound 115]	7.24	
O=C(CCN1CCC(CCc2cnc[nH]2)CC1)Nc1ccc(Cl)cc1 [Compound 116]	7.96	
O=C(CCN1CCC(CCc2cnc[nH]2)CC1)Nc1ccc(C(F)(F)F)cc1 [Compound 117]	7.30	
O=C(Nc1cccc(Cl)c1)N1CCC(CCc2cnc[nH]2)CC1 [Compound 118]	6.68	
NCCc1c[nH]cn1 [histamine]		approximately 60%

Source: patent publication US6100279A, “Imidazoylalkyl substituted with a five, six or seven membered heterocyclic ring containing one nitrogen atom” (Schering Corporation, priority 1998, dated 2000)
